Publication PMC10369496, “Cu(II) and Zn(II) Complexes of New 8-Hydroxyquinoline Schiff Bases: Investigating Their Structure, Solution Speciation, and Anticancer Potential” (Inorganic Chemistry, 2023)
“Also recorded” adds a separate entry of the source. Where two headings read alike, the source gives them in different places.

Key:
[1] = Distribution coefficient, shake-flask n-octanol/buffered aqueous solution pH 7.40; assay type: physicochemical; settings: n-octanol/water partitioning, pH 7.40, 25 °C; for logD at 3 h: n-octanol/buffered aqueous solution, pH 7.4, read-out: log D7.4
Procedure: The distribution coefficients (D7.4) of the compounds were determined by the shake-flask method in n-octanol/buffered aqueous solution at pH 7.40 (25.0 ± 0.2 °C). The ligand precursors and the complexes were dissolved in 10 mM HEPES presaturated with n-octanol. The aqueous solution and n-octanol (1:1 ratio) were gently mixed with a 360° vertical rotation (∼20 rpm) for 3 h; then, the samples were centrifuged at 3000 rpm for 5 min. Two phases were separated, and their UV–vis spectra were recorded. The D7.4 value was calculated as follows [drawing 1] 1

[2] = system: human keratinocytes HaCaT; assay: MTT assay in nontumorigenic HaCaT cells; assay type: cell-based; settings: for IC50: HaCaT, 48 h incubation, MTT colorimetric method; for Selectivity index (SI): IC50 HaCaT/IC50 A375
Procedure: (§1) Cell culture media and antibiotics were obtained from Gibco (Thermo Fisher Scientific). Human malignant melanoma A375 cells (ATCC CRL-1619TM) and human keratinocytes HaCaT (CLS 300493) were cultured in DMEM-Glutamax supplemented with 10% fetal bovine serum (FBS), hereafter designated as complete medium. For human keratinocytes, 100 IU/mL of penicillin and 100 μg/mL of streptomycin (Gibco, Thermo Fisher Scientific) were also used. The cell lines were kept at 37 °C with a 5% CO2 atmosphere. The maintenance of cell cultures was performed every 2–3 days until the cells reached a confluency of about 80%.
The MTT assay was used to assess cell viability in the presence of increasing concentrations of selected compounds. Briefly, HaCaT cells were plated at a concentration of 5 × 10^4 cells/mL in 96-well plates (200 μL/well) and cultured for 24 h in the culture conditions described above. Then, cells were incubated with free ligands and metal complexes at concentrations ranging from 5 to 30 μM. Negative controls were cells maintained in complete culture medium. The culture medium was discarded after 48 h, cells were washed with PBS (2 times), and then 50 μL of MTT at 0.5 mg/mL in incomplete medium was added to all wells. After 2–3 h of incubation period at 37 °C, 100 μL of DMSO was added to each well to solubilize the formazan crystals, and absorbance was measured at 570 nm using a microplate reader Model 680 (Bio-Rad, CA). Two independent experiments were carried out, with six replicates per condition.
(§2) GraphPad Prism8 (GraphPad Software, San Diego, CA) was used to analyze cell proliferation, and values were plotted and fit a standard log dose–response curve to generate IC50 values.

[3] = Overall stability (formation) constants of Zn(II) complexes by UV–vis spectrophotometric titrations; assay type: physicochemical; settings: I = 0.1 M KCl, t = 25.0 °C; for log β (ZnL2): bis-ligand Zn(II) complex; for log β (ZnL): mono-ligand Zn(II) complex
Procedure: (§3) The UV–vis titrations were performed with a 0.10 M carbonate-free KOH solution using a Metrohm 665 Dosimat buret and an Orion 710A pH-meter equipped with a Metrohm combined electrode (type 6.0234.100). […] The average water ionization constant (pKw) is 13.76 ± 0.05. The path length was 1 cm, and the temperature was 25.0 ± 0.1 °C. An ionic strength of 0.10 M KCl was used to keep the activity coefficients constant. The samples were deoxygenated by bubbling argon through the system for 10 min. Spectrophotometric titrations were carried out using an Agilent Cary 8454 diode array spectrophotometer (Santa Clara, CA) in water on samples containing the ligands at 60 μM, in the pH range from 1.5 to 11.5 in the absence or in the presence of 1, 0.5, or 0.25 equiv of Cu(II) and Zn(II) ions, using 10.00 mL of sample volumes. Proton dissociation constants (Ka) of the ligand precursors, as well as stoichiometry and overall stability constants (β) of the metal complexes, were calculated by the computer program PSEQUAD.[20]

[4] = Overall stability (formation) constants of Cu(II) complexes by UV–vis spectrophotometric titrations; assay type: physicochemical; settings: I = 0.1 M KCl, t = 25.0 °C; for log β (CuL2): bis-ligand Cu(II) complex; for log β (CuL): mono-ligand Cu(II) complex
Procedure: as §3

[5] = Proton dissociation constants by UV–vis spectrophotometric titrations; assay type: physicochemical; settings: water with 0.10 M KCl, I = 0.1 M KCl, t = 25.0 °C
Procedure: as §3

[6] = system: Human malignant melanoma A375 cells; assay: Antiproliferative activity in A375 cells, CellTiter-Glo 3D luminescent method; assay type: cell-based
Procedure: as §1
The CellTiter-Glo 3D kit (Promega) was used to assess the viability of the A375 cells in the presence or absence (negative control) of increasing concentrations of the free ligands and complexes. The kit detects adenosine triphosphate, which is proportional to the number of viable cells, therefore allowing the assessment of cell proliferation. First, A375 cells were plated at a concentration of 5 × 10^4 cells/mL in 96-well plates (200 μL/well) and cultured for 24 h in the culture conditions described above. Then, cells were incubated with the free ligands (1–100 μM), Zn(II) complexes (1 to 80 μM), and Cu(II) complexes (1–20 μM) in 96-well plates. After an incubation period of 48 h, 100 μL of each well was discarded. Then, 40 μL of CellTiter-Glo 3D reagent was added into each well and the contents were mixed vigorously for 15 min to induce cell lysis at room temperature. Finally, the luminescence was measured using a Varioskan Lux multimode plate reader (Thermo Scientific). Values presented are mean ± standard deviation (SD) of two independent biological experiments with 4 technical replicates per condition.
as §2

[7] = Stability in aqueous HEPES buffer (5% DMSO) by UV–vis; assay type: physicochemical; settings: HEPES 10 mM pH 7.4 with 5% (v/v) DMSO; 100–135 μM; 24 h
Procedure: Stock solutions of each complex were freshly prepared in DMSO and diluted with HEPES buffer (10 mM, pH 7.4), ensuring that the organic solvent content was less than 5% (v/v). The samples were monitored by UV–vis absorption spectrophotometry for 6 consecutive hours, and a final measurement was done after 24 h.

[8] = Thermodynamic solubility in water at pH 7.40; assay type: physicochemical; settings: pH 7.40, 10 mM HEPES, 37 °C, 24 h incubation
Procedure: Thermodynamic solubility (S) of the free ligands and complexes was determined for the saturated solutions in water at pH 7.40 in 10 mM HEPES at 37.0 ± 0.2 °C. The concentration of the compounds was determined by UV–vis spectrophotometry using stock solutions with known concentrations dissolved in 100% DMSO, 50%, and 25% (v/v) DMSO/buffered aqueous solutions for the calibration.

A375 cells = assay: Guava ViaCount assay by flow cytometry; assay type: cell-based, human; settings: A375, 48 h; Zn(L2)2 at 15 μM, Cu2(L2)4 at 12 μM
Procedure: For the Guava ViaCount assay, A375 cells were plated at a concentration of 8 × 10^4 cells/mL in 24-well plates (1 mL/well) and cultured for 24 h in the culture conditions described above.[23] Cells were then incubated with Zn(L2)2 and Cu2(L2)4 at concentrations of 15 and 12 μM, respectively. The positive control, dacarbazine (DTIC), was tested at 70 μM. Cells in the presence of complete culture medium constituted the negative control group. After an incubation period of 48 h, cell culture supernatants were collected, and adherent cells were detached using TrypLEExpress (Invitrogen). Detached cells were then added to supernatants, and the wells were washed using PBS with 2% FBS to recover any remaining cells. The recovered suspension was centrifuged for 5 min at 700 g. The supernatants were discarded, and cells were suspended in PBS with 2% FBS. Then, on a 96-well plate, 20 μL of cell suspension was incubated with 180 μL of Guava ViaCount reagent (Merck Millipore, Darmstadt, Germany) for 5 min at r.t. Using a Guava EasyCyte 5HT Flow cytometer (Guava Technologies, Inc., Hayward, CA), data were collected and analyzed with the ViaCount software module with an acquisition of 10,000 events per sample. GraphPad Prism8 was used to analyze cell proliferation (GraphPad Software, San Diego, CA). One experiment was carried out, with three replicates per condition.

melanoma cell line A375 = system: melanoma cell line A375; set-up: method as in doi:10.1016/j.phytol.2021.07.008; settings: A375, MTT method; cited from earlier work
[9] = target: T1, bovine serum albumin (BSA) (Bos taurus, UniProt P02769); assay: Fluorescence quenching titration of BSA; assay type: binding
T1 construct: bovine serum albumin (BSA) stock solutions of lyophilized protein
Procedure: The steady-state fluorescence emission spectra of a solution of 0.5–1.0 μM BSA (in HEPES buffer) were recorded between 310 and 500 nm with λexc = 295 nm after additions of the complexes’ solutions directly to the cuvette (optical path of 1.0 cm). The UV–vis spectrum of each sample was used to make corrections and minimize the inner filter and reabsorption interferences.[22] Solutions with the same concentration of complex and no BSA were recorded and used as blank spectra.
Data were analyzed by fitting a second-order equation, which accounts for both static and dynamic quenching [drawing 2] 2 where I0 and I are the fluorescence intensities in the absence and presence of quencher (Q), and KS and KD are the static and dynamic quenching constants, respectively.
The Stern–Volmer equation was used for low quencher concentrations to determine the Stern–Volmer quenching constant (KSV), a measure of the quenching strength [drawing 3] 3

[10] = Stability by 1H NMR in DMSO-d6 or 30% DMSO-d6/H2O; assay type: physicochemical; settings: 1 mM
Procedure: A Bruker Avance III HD Ascend 500 Plus instrument (Billerica, MA) was used for NMR spectroscopic titrations and time-dependent studies applying a WATERGATE water suppression pulse scheme in the presence of 10% (v/v) D2O/H2O, and the sodium trimethylsilylpropanesulfonate (DSS) standard was added to samples as the internal reference. ^1H NMR titrations were carried out for the ligand precursors in the presence of 0.1 M KCl. For free ligands and complexes’ stability measurements, ^1H NMR spectra were recorded in DMSO-d6 or 30% (v/v) DMSO-d6/H2O.

[11] = quinolinium nitrogen, read-out: pKa (NqH+)
[12] = Homo sapiens, A-375, A375, 48 h incubation

T1 sequence (P02769 25-607): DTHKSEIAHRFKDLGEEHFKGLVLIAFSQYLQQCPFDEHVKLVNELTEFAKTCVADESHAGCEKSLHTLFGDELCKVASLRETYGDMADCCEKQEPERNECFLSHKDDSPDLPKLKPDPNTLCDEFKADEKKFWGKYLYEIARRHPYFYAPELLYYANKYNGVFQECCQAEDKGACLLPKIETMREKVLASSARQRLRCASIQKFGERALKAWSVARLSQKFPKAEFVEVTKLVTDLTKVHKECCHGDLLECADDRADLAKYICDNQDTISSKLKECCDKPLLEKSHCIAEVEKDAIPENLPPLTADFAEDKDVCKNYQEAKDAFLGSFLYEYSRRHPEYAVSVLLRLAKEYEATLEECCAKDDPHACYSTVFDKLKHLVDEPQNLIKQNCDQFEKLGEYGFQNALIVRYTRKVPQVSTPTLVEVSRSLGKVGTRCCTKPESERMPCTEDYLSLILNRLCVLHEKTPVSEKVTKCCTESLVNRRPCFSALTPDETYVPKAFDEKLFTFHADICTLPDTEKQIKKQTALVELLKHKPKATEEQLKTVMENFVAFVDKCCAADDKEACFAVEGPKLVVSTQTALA

| Compound | logD at 3 h [1] | log β (ZnL2) [3] | log β (ZnL) [3] | log β (CuL2) [4] | log β (CuL) [4] | pKa ([5]; phenol OH, read-out: pKa (OH)) | pKa [5, 11] | IC50 [6, 12] [µM] | log D7.4 [1] | stability in aqueous media [7] | Thermodynamic solubility S7.4 [8] [µM] | IC50 ([6]; A375, 48 h incubation) [µM] | IC50 ([2]; Homo sapiens) [µM] | IC50 [2] [µM] | Selectivity index (SI) [2] | also measured |
| --- | --- | --- | --- | --- | --- | --- | --- | --- | --- | --- | --- | --- | --- | --- | --- | --- |
| Oc1cccc2ccc(/C=N/CCCN3CCOCC3)nc12 [L3] | 0.76 | 13.68 ± 0.04 | 6.87 ± 0.01 | 15.57 ± 0.01 | 8.34 ± 0.01 | 8.78 ± 0.03 | 2.77 ± 0.03 | 25.8 ± 0.3 |  |  |  |  | > 30 |  |  |  |
| Oc1cccc2ccc(/C=N/CCN3CCOCC3)nc12 [L2] | 0.64 | 14.32 ± 0.02 | 6.86 ± 0.04 | 15.77 ± 0.03 | 7.98 ± 0.02 | 8.84 ± 0.03 | 2.83 ± 0.03 | 15.9 ± 0.1 |  |  |  |  | > 30 |  |  |  |
| [O-]c1cccc2ccc(/C=N/CCCN3CCOCC3)nc12.[O-]c1cccc2ccc(/C=N/CCCN3CCOCC3)nc12.[Zn+2] [Zn(L3)2] |  |  |  |  |  |  |  |  | >1.5 | suggests hydrolysis; also recorded: significant hydrolysis | 87 | 9.3 ± 1.1 |  | 26.3 ± 0.7 | 2.8 |  |
| Oc1cccc2ccc(/C=N/CCN3CCCCC3)nc12 [L1] | 0.63 | 14.42 ± 0.01 | 6.90 ± 0.03 | 15.60 ± 0.02 | 8.36 ± 0.01 | 8.77 ± 0.03 | 2.8 ± 0.03 | 15.2 ± 0.2 |  |  |  |  | > 30 |  |  |  |
| N.N.[Cl][Pt][Cl] [Cisplatin] |  |  |  |  |  |  |  |  |  |  |  |  |  |  |  | IC50 (melanoma cell line A375): 10.9 ± 1.3 µM |
| [Cu+2].[O-]c1cccc2ccc(/C=N/CCCN3CCOCC3)nc12.[O-]c1cccc2ccc(/C=N/CCCN3CCOCC3)nc12 [Cu(L3)2] |  |  |  |  |  |  |  |  | >1.5 |  | 1821 | 6.7 ± 0.2 |  | 8.1 ± 0.2 | 1.2 | Stern–Volmer quenching constant KSV ([9]; fit at low quencher concentrations, HEPES pH 7.4): (2.20 ± 0.07) × 10^5 M^–1; % quenching ([9]; molar ratio complex:BSA = 10, λexc = 295 nm): 48% |

Second part, led by results:

| logD at 3 h [1] | log β (ZnL2) [3] | log β (ZnL) [3] | log β (CuL2) [4] | log β (CuL) [4] | pKa ([5]; phenol OH, read-out: pKa (OH)) | pKa [5, 11] | IC50 [6, 12] [µM] | log D7.4 [1] | stability in aqueous media [7] | Thermodynamic solubility S7.4 [8] [µM] | IC50 ([6]; A375, 48 h incubation) [µM] | Compound | IC50 ([2]; Homo sapiens) [µM] | IC50 [2] [µM] | Selectivity index (SI) [2] | also measured |
| --- | --- | --- | --- | --- | --- | --- | --- | --- | --- | --- | --- | --- | --- | --- | --- | --- |
|  |  |  |  |  |  |  |  | +0.86 ± 0.09 | did not show signs of decomposition | 1674 | 10.3 ± 1.6 | [O-]c1cccc2ccc(/C=N/CCN3CCOCC3)nc12.[O-]c1cccc2ccc(/C=N/CCN3CCOCC3)nc12.[Zn+2] [Zn(L2)2] |  | 24.4 ± 0.6 | 2.4 | percentage of dead and apoptotic cells (A375 cells): 10% |
|  |  |  |  |  |  |  |  | >1.5 | did not show signs of decomposition | 694 | 9.1 ± 1.5 | [O-]c1cccc2ccc(/C=N/CCN3CCCCC3)nc12.[O-]c1cccc2ccc(/C=N/CCN3CCCCC3)nc12.[Zn+2] [Zn(L1)2] |  | 22.3 ± 0.7 | 2.5 | period the 1H NMR spectra remained unchanged [10]: 8 days |
